Experiments:
Type in all cases: biochemical
HDAC4 = HDAC4 (Homo sapiens, UniProt P56524); assay: HDAC activity assay, HDAC4
HDAC7 = biological target: T1, HDAC7 (Homo sapiens, UniProt Q8WUI4); assay: HDAC activity assay, HDAC7
T1 sequence (Q8WUI4 1-952): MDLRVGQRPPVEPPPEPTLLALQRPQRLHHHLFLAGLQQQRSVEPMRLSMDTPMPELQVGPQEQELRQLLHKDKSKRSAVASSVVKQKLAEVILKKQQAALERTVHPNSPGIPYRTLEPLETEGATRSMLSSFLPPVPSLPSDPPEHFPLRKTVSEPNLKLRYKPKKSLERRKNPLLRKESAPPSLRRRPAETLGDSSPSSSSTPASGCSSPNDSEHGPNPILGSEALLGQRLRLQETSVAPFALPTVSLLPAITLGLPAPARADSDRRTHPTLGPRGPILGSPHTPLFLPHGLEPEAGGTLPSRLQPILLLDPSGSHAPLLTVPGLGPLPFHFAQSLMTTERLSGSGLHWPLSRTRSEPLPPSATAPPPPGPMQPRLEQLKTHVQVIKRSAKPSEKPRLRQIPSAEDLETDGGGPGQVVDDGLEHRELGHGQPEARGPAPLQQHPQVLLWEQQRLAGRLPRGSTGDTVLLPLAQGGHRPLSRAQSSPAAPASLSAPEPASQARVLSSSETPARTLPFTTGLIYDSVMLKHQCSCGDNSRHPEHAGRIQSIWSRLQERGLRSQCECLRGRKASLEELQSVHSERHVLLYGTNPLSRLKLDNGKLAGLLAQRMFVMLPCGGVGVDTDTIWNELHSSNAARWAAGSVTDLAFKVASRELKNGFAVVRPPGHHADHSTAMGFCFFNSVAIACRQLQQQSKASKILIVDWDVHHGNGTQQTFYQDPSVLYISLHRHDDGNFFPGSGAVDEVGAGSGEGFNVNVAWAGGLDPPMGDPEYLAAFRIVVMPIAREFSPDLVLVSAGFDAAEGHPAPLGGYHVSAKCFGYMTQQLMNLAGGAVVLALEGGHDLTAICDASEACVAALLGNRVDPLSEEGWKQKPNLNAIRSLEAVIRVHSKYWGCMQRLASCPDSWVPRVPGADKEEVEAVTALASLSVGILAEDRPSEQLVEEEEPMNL

HDAC9 = HDAC9 (Homo sapiens, UniProt Q9UKV0); assay: HDAC activity assay, HDAC9
HDAC6 = biological target: T2, HDAC6 (Homo sapiens, UniProt Q9UBN7); assay: HDAC activity assay, HDAC6
T2 sequence (Q9UBN7 1-1215): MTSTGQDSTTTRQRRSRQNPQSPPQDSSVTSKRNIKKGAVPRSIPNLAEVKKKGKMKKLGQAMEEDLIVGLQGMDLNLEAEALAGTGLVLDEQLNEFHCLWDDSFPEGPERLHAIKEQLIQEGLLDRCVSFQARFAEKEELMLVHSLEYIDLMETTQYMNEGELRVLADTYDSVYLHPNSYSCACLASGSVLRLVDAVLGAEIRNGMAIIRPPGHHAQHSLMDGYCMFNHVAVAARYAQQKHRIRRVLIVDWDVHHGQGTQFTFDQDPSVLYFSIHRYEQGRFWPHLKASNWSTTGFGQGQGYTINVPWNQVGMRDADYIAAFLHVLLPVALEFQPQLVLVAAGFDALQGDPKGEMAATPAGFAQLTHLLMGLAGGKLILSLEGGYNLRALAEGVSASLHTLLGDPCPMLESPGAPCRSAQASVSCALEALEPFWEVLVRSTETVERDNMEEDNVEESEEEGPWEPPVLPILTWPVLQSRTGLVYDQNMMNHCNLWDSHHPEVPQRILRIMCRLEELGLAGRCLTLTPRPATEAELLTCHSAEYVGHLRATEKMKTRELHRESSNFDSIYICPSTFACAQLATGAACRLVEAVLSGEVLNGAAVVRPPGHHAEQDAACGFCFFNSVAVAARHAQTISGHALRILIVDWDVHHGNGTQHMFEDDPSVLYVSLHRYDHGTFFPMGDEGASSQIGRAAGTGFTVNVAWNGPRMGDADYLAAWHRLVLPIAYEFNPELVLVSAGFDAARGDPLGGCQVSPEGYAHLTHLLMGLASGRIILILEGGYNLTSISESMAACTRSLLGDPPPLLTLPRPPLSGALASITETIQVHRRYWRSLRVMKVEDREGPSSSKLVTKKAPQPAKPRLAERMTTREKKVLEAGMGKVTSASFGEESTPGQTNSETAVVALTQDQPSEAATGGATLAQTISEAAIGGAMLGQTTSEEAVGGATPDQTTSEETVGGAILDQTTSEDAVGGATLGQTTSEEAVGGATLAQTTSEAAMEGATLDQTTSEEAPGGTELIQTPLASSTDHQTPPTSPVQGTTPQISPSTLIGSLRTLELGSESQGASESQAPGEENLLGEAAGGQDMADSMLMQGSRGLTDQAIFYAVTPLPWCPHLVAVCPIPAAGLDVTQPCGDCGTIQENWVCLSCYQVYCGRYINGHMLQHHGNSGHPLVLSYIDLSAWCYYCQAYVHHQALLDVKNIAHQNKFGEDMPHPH

HDAC4, sequence (P56524 whole entry, species assumed): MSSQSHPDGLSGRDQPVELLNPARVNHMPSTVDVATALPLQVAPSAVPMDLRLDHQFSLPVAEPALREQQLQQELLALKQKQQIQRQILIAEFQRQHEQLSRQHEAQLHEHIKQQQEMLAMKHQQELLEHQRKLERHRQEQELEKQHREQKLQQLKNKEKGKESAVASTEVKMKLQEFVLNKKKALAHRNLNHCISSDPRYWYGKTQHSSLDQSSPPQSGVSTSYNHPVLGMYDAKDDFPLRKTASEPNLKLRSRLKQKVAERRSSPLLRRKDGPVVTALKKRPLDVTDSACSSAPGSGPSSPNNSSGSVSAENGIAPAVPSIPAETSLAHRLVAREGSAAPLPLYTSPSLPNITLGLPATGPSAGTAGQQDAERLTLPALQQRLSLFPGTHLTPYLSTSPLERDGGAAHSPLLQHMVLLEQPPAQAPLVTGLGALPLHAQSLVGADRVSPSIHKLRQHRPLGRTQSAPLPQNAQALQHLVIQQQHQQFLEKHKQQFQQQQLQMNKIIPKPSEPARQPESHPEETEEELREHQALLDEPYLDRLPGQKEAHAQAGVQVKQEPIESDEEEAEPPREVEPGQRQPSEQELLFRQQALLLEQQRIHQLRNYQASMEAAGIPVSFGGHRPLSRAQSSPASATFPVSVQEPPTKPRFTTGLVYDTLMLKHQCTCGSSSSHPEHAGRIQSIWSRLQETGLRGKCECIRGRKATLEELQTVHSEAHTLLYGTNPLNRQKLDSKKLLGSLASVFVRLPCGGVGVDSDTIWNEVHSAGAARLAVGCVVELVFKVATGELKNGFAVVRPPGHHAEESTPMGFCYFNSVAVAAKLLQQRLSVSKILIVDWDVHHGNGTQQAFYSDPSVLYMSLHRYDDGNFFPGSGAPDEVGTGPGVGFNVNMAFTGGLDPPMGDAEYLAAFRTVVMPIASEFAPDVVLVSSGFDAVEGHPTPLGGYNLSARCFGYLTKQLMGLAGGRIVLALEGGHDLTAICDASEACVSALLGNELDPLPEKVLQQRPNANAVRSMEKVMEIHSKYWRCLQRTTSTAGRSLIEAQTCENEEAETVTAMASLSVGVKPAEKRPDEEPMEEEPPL
HDAC9, sequence (Q9UKV0 whole entry): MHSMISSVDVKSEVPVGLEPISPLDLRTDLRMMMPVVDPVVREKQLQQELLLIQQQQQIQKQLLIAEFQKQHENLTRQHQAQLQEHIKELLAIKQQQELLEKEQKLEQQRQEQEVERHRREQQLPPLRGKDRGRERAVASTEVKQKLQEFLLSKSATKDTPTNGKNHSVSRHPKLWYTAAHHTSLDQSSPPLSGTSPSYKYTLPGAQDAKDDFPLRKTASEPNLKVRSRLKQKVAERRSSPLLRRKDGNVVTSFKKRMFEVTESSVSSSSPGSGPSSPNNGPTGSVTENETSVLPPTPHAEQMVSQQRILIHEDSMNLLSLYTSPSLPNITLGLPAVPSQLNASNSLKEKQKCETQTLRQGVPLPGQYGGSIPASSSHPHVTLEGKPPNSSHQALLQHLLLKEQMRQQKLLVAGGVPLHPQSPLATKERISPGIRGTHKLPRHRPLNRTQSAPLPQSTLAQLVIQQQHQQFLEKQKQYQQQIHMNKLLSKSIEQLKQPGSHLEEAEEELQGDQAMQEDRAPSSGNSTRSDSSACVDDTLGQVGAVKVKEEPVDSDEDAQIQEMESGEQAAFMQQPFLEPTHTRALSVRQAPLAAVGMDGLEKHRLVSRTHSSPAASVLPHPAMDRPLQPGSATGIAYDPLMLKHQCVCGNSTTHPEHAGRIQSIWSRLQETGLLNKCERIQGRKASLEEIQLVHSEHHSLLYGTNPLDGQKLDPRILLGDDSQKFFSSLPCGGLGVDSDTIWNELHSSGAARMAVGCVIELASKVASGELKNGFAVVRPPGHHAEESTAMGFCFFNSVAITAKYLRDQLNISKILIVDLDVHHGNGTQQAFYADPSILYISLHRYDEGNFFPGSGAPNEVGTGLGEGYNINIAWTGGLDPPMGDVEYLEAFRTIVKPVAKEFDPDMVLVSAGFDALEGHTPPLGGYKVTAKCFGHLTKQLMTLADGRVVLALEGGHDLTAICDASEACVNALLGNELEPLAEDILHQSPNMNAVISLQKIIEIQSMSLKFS

| IC50 (HDAC4) [nM] | IC50 (HDAC7) [nM] | IC50 (HDAC9) [nM] | IC50 (HDAC6) [nM] | Compound |
| --- | --- | --- | --- | --- |
| 2070 ± 140 | 460 ± 20 | 15200 ± 500 | 74.8 ± 2 | O=C(NO)c1ccc(CN2c3ccccc3Oc3cc(C(=O)Nc4ccc(C(=O)c5ccccc5)cc4)ccc32)cc1 [Compound 12c, N-Hydroxy-4-{[3–(4-benzoylphenyl)carbamoyl-phenoxazin-10-yl]methyl}benzamide] |
| 1410 ± 180 | 520 ± 10 | 1040 ± 200 | 8 | NC(=O)c1ccc2c(c1)Oc1ccccc1N2Cc1ccc(C(=O)NO)cc1 [Compound 7e, N-Hydroxy-4-[(3-carbamoyl-10H-phenoxazin-10-yl)methyl]benzamide] |
| 3230 ± 590 | 1220 ± 320 | 4080 ± 200 | 20 | N#Cc1ccc2c(c1)Oc1ccccc1N2Cc1ccc(C(=O)NO)cc1 [Compound 16, N-Hydroxy-4-[(3-cyano-10H-phenoxazin-10-yl)methyl]benzamide] |
| 4320 ± 110 | 790 ± 30 | 2200 ± 10 | 17 ± 3 | O=C(NO)c1ccc(CN2c3ccccc3Oc3ccccc32)cc1 [Compound 7a, N-Hydroxy-4-[(10H-phenoxazin-10-yl)methyl]benzamide] |
| 3660 ± 220 | 2260 ± 10 | 3490 ± 700 | 46 ± 2 | O=C(NO)c1ccc(CN2c3ccccc3Oc3ccc(C(=O)Nc4ccccc4)cc32)cc1 [Compound 12b, N-Hydroxy-4-[(2-phenylcarbamoylphenoxazin-10-yl)methyl]benzamide] |
| 2940 ± 520 | 1580 ± 300 | 3640 ± 60 | 43.1 ± 3 | O=C(NO)c1ccc(CN2c3ccccc3Oc3cc(C(=O)Nc4ccccc4)ccc32)cc1 [Compound 12d, N-Hydroxy-4-[(3-phenylcarbamoylphenoxazin-10-yl)methyl]benzamide] |
| 3180 ± 330 | 1750 ± 10 | 1560 ± 190 | 15 | O=C(NO)c1ccc(CN2c3ccccc3Oc3cc(Br)ccc32)cc1 [Compound 18, N-Hydroxy-4-[(3-bromo-10H-phenoxazin-10-yl)methyl]benzamide] |
| 8060 ± 210 | 5120 ± 20 | 6320 ± 2060 | 23 ± 3 | O=C(NO)c1ccc(CN2c3ccccc3Oc3cc(-c4ccccc4)ccc32)cc1 [Compound 20, N-Hydroxy-4-[(3-phenyl-10H-phenoxazin-10-yl)methyl]benzamide] |
